Data taken from patent US12629359B2 (UNIVERSITA' DEGLI STUDI DI BRESCIA, priority 2020, dated 2026).
Entries after “also recorded” stand apart in the source; their conditions may differ.

Assays:
[1] = biological target: T1, alpha-synuclein/Synapsin III interaction (Homo sapiens, UniProt O14994+P37840); experiment: Acceptor photobleaching FRET of alpha-synuclein/Synapsin III interaction in neuronal-differentiated SK-N-SH cells; type: cell-based; settings: 10 μM, 15 min; for stimulation of alpha-synuclein/Synapsin III interaction (FRET efficiency), in words: vs basal
T1 construct: expressed in transfected cells; host or cells: neuronal-differentiated (retinoic acid) human SK-N-SH neuroblastoma cells, transient transfection with Lipofectamine 3000
Description: (§1) The ability of the different compound to stimulate alpha-synuclein/Synapsin III interaction was evaluated by acceptor photobleaching FRET or FLIM in neuronal-like cells. In particular, we used neuronal-differentiated SK—N—SH neuroblastoma cells transiently transfected with red fluorescent protein (RFP)-tagged human wild type alpha-synuclein and green fluorescent protein (GFP)-tagged the human 63 kDa Synapsin III isoform.
Acceptor photobleaching FRET microscopy allows an accurate evaluation of protein-protein interaction through the measurement of FRET efficiency. This parameter is indicative of the increase of donor fluorescence after complete photobleaching of the acceptor fluorescence, within a FRET pair of fluorophores (where the emission wavelength of a donor falls within the excitation wavelength of an acceptor). Since FRET efficiency is detectable only when the two fluorophores are sufficiently close to ensure that their linked proteins are interacting, the molecular proximity of these latter results strictly dependent on this parameter^36,37. […] Human neuroblastoma SK—N—SH cells were grown in complete medium comprising Dulbecco's modified Eagle's medium with 1000 mg glucose/l supplemented with 10% heat-inactivated fetal bovine serum, 100 μg/ml penicillin and 100 μg/ml streptomycin. Cells were maintained at 37° C. under a humidified atmosphere of 5% CO2 and […]. For FRET studies, SK—N—SH cells were seeded onto poli-D-lysine-coated 13 mm glass coverslips in 24-well plates (15000 cells per coverslip) and were maintained in differentiation medium for ten days by daily adding 10 μM retinoic acid to the medium. […] Fixed cells were analyzed by means of a Zeiss confocal laser microscope LSM 880 (Carl Zeiss) with the laser set on A=488-543. After identifying double positive cells three-to-six regions of interest (ROI) were analyzed for 4 series. Two images of basal condition (Pre-bleaching) were acquired before bleaching the RFP acceptor fluorophore with laser 543 set at 65% power. Then, other two images were acquired after the bleaching (Post-bleaching). The FRET efficiency (intended as the GFP recovery after RFP photobleaching) was measured by using Zen black software (Carl Zeiss). The average intensity of the background (outside the cell) was subtracted from the average intensity of the ROI and all the FRET values resulting from the different ROI were used for statistical analysis.
Human neuroblastoma SK—N—SH cells were grown in complete medium comprising Dulbecco's modified Eagle's medium with 1000 mg glucose/l supplemented with 10% heat-inactivated fetal bovine serum, 100 μg/ml penicillin and 100 μg/ml streptomycin. Cells were maintained at 37° C. under a humidified atmosphere of 5% CO2 and […]. For FRET studies, SK—N—SH cells were seeded onto poli-D-lysine-coated 13 mm glass coverslips in 24-well plates (15000 cells per coverslip) and were maintained in differentiation medium for ten days by daily adding 10 μM retinoic acid to the medium. […] Fixed cells were analyzed by means of a Zeiss confocal laser microscope LSM 880 (Carl Zeiss) with the laser set on λ=488-543. After identifying double positive cells three-to-six regions of interest (ROI) were analyzed for 4 series. Two images of basal condition (Pre-bleaching) were acquired before bleaching the RFP acceptor fluorophore with laser 543 set at 65% power. Then, other two images were acquired after the bleaching (Post-bleaching). The FRET efficiency (intended as the GFP recovery after RFP photobleaching) was measured by using Zen black software (Carl Zeiss). The average intensity of the background (outside the cell) was subtracted from the average intensity of the ROI and all the FRET values resulting from the different ROI were used for statistical analysis.

[2] = biological target: T1, alpha-synuclein/Synapsin III interaction; experiment: FLIM-FRET (donor lifetime) of alpha-synuclein/Synapsin III interaction in SK-N-SH cells; type: cell-based; settings: 10 μM, 15 min after treatment
Description: as §1
The comparison of the lifetimes of the donor alone and in presence of the acceptor allows for precise and concentration-independent measurements of FRET efficiency. Fluorescence lifetime is defined as the average time that a fluorophore spends in the excited state after the absorption of light, prior to returning to the ground state by emitting a photon. Donor fluorescence lifetime is decreased when FRET occurs between the fluorophore pair. The comparison of the lifetimes of the donor alone and in presence of the acceptor allows for precise and concentration-independent measurements of FRET efficiency (Ishikawa-Ankerhold, H. C. et al. Molecules (Basel, Switzerland) 2012, 17, 4047-4132). Human neuroblastoma SK—N—SH cells were grown in complete medium comprising Dulbecco's modified Eagle's medium with 1000 mg glucose/l supplemented with 10% heat-inactivated fetal bovine serum, 100 μg/ml penicillin and 100 μg/ml streptomycin. Cells were maintained at 37° C. under a humidified atmosphere of 5% CO2 and […]. For FRET/FLIM studies, SK—N—SH cells were seeded onto poli-D-lysine-coat 1.7 cm2 glass chamber (15000 cells per well) and were maintained in differentiation medium for ten days by daily adding 10 μM retinoic acid to the medium. […] The time-domain FLIM was measured using a Time-Correlated Single Photon Counting (TCSPC) (PicoQuant) operated with SymPhoTime 64 software (PicoQuant). […] The images of GFP fluorescence generated in ZEN software were stored and processed with SymPhoTime 64. The mean fluorescence intensities within cell body were determined using the ROI tool in SymPhoTime 64. […] The fluorescence lifetime analysis was performed in the SymPhoTime 64 software within the cell body, automatically recognized by the software as ROI 0. Individual photon arrivals were detected using a SPAD detector and events were recorded by a PicoHarp 300 TCSPC module. […] The percentage FLIM-FRET efficiency was calculated as: 100×[1−(lifetime of donor with FRET/lifetime of donor without FRET)]. For lifetime analysis, fifteen cells were recorded for each condition, included GFP alone.

T1 sequence (O14994 whole entry, one chain of several): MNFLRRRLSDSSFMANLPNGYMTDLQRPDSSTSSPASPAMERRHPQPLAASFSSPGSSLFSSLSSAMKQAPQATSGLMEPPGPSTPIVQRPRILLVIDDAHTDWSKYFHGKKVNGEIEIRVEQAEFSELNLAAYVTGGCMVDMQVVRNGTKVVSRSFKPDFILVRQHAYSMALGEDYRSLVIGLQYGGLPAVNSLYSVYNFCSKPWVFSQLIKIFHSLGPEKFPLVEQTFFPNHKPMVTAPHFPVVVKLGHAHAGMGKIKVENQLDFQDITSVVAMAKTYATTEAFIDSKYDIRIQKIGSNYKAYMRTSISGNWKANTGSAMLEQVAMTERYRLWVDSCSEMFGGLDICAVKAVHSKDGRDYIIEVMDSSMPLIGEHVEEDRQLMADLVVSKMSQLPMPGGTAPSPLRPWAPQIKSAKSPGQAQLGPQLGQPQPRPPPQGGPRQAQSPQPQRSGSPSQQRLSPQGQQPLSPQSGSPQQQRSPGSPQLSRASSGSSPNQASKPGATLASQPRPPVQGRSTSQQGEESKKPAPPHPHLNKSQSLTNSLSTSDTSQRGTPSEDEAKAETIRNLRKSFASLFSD

For `COC(=O)[C@H](c1ccc(C)cc1)C1CCCCN1.Cl` (stereo partly drawn) [I-erythro], the “stimulation of alpha-synuclein/Synapsin III interaction (FRET efficiency), in words” value [1] was “not able to stimulate alpha-synuclein/Synapsin III interaction; also recorded: No significant increase” and the “stimulation of alpha-synuclein/Synapsin III interaction (FLIM), in words” value [2] was “did not stimulate alpha-synuclein/Synapsin III interaction”.

`COC(=O)[C@@H](c1ccc(C)cc1)C1CCCCN1.Cl` (stereo partly drawn) [I-threo, threo methyl 2-(piperidin-2-yl)-2-(p-tolyl)acetate hydrochloride] was tested, and the “% FRET efficiency change vs control untreated cells” value ([1]; neuronally differentiated SK-N-SH cells) was “+8.8%”, the “% FRET efficiency change vs MPH-treated cells” value ([1]; vs MPH 10 μM) was “+5.5%” and the “% FRET efficiency change vs VI-threo-treated cells” value ([1]; vs VI-threo 10 μM) was “+5.2%”. The “stimulation of alpha-synuclein/Synapsin III interaction (FRET efficiency), in words” value [1] was “significant increase in the FRET efficiency”, the “% decrease of tau amplitude (donor lifetime) vs MPH treated cells” value [2] was -8.4% and the “% decrease of tau amplitude (donor lifetime) vs untreated cells” value [2] was -11.95%. The “stimulation of alpha-synuclein/Synapsin III interaction (FLIM), in words” value [2] was “able to promote alpha-synuclein/synapsin III interaction”.
